According to article PMC10408569, “Recruitment of hexahydroquinoline as anticancer scaffold targeting inhibition of wild and mutants EGFR (EGFR^WT, EGFR^T790M, and EGFR^L858R)” (Journal of Enzyme Inhibition and Medicinal Chemistry, 2023):

Columns and labels:
CCRF-CEM = test: NCI-60 anticancer screening (SRB); assay type: cell-based; conditions: Homo sapiens, leukemia, one dose 10 μM, read-out: Growth Inhibition Percentage (GI %)
HL-60(TB) = test: NCI-60 anticancer screening (SRB); assay type: cell-based; conditions: Homo sapiens, leukemia, one dose 10 μM, read-out: Growth Inhibition Percentage (GI %)
K-562 = test: NCI-60 anticancer screening (SRB); assay type: cell-based; conditions: Homo sapiens, K562; K-562, leukemia; one dose 10 μM; read-out: Growth Inhibition Percentage (GI %)
SR = test: NCI-60 anticancer screening (SRB); assay type: cell-based; conditions: Homo sapiens, leukemia, one dose 10 μM, read-out: Growth Inhibition Percentage (GI %)
NCI-H226 = test: NCI-60 anticancer screening (SRB); assay type: cell-based; conditions: Homo sapiens; NCI-H226, NSC lung cancer; one dose 10 μM; read-out: Growth Inhibition Percentage (GI %)
NCI-H322M = test: NCI-60 anticancer screening (SRB); assay type: cell-based; conditions: Homo sapiens, NSC lung cancer, one dose 10 μM, read-out: Growth Inhibition Percentage (GI %)
COLO 205 = test: NCI-60 anticancer screening (SRB); assay type: cell-based; conditions: Homo sapiens; COLO 205, colon cancer; one dose 10 μM; read-out: Growth Inhibition Percentage (GI %)
HCT-116 = test: NCI-60 anticancer screening (SRB); assay type: cell-based; conditions: Homo sapiens; HCT-116, colon cancer; one dose 10 μM; read-out: Growth Inhibition Percentage (GI %)
HCT-15 = test: NCI-60 anticancer screening (SRB); assay type: cell-based; conditions: Homo sapiens; HCT-15, colon cancer; one dose 10 μM; read-out: Growth Inhibition Percentage (GI %)
KM 12 = test: NCI-60 anticancer screening (SRB); assay type: cell-based; conditions: Homo sapiens, KM12; KM 12, colon cancer; one dose 10 μM; read-out: Growth Inhibition Percentage (GI %)
SW-620 = test: NCI-60 anticancer screening (SRB); assay type: cell-based; conditions: Homo sapiens; SW-620, colon cancer; one dose 10 μM; read-out: Growth Inhibition Percentage (GI %)
SF-268 = test: NCI-60 anticancer screening (SRB); assay type: cell-based; conditions: Homo sapiens; SF-268, CNS cancer; one dose 10 μM; read-out: Growth Inhibition Percentage (GI %)
SNB-75 = test: NCI-60 anticancer screening (SRB); assay type: cell-based; conditions: Homo sapiens; SNB-75, CNS cancer; one dose 10 μM; read-out: Growth Inhibition Percentage (GI %)
U251 = test: NCI-60 anticancer screening (SRB); assay type: cell-based; conditions: Homo sapiens, U-251; U251, CNS cancer; one dose 10 μM; read-out: Growth Inhibition Percentage (GI %)
LOX IMVI = test: NCI-60 anticancer screening (SRB); assay type: cell-based; conditions: Homo sapiens, melanoma, one dose 10 μM, read-out: Growth Inhibition Percentage (GI %)
M14 = test: NCI-60 anticancer screening (SRB); assay type: cell-based; conditions: Homo sapiens; M14, melanoma; one dose 10 μM; read-out: Growth Inhibition Percentage (GI %)
SK-MEL-2 = test: NCI-60 anticancer screening (SRB); assay type: cell-based; conditions: Homo sapiens; SK-MEL-2, melanoma; one dose 10 μM; read-out: Growth Inhibition Percentage (GI %)
UACC-257 = test: NCI-60 anticancer screening (SRB); assay type: cell-based; conditions: Homo sapiens; UACC-257, melanoma; one dose 10 μM; read-out: Growth Inhibition Percentage (GI %)
IGROV1 = test: NCI-60 anticancer screening (SRB); assay type: cell-based; conditions: Homo sapiens, IGROV-1; IGROV1, ovarian cancer; one dose 10 μM; read-out: Growth Inhibition Percentage (GI %)
OVCAR-5 = test: NCI-60 anticancer screening (SRB); assay type: cell-based; conditions: Homo sapiens; OVCAR-5, ovarian cancer; one dose 10 μM; read-out: Growth Inhibition Percentage (GI %)
NCI/ADR-RES = test: NCI-60 anticancer screening (SRB); assay type: cell-based; conditions: Homo sapiens, ovarian cancer, one dose 10 μM, read-out: Growth Inhibition Percentage (GI %)
SK-OV-3 = test: NCI-60 anticancer screening (SRB); assay type: cell-based; conditions: Homo sapiens; SK-OV-3, ovarian cancer; one dose 10 μM; read-out: Growth Inhibition Percentage (GI %)
786-0 = test: NCI-60 anticancer screening (SRB); assay type: cell-based; conditions: Homo sapiens; 786-0, renal cancer; one dose 10 μM; read-out: Growth Inhibition Percentage (GI %)
A498 = test: NCI-60 anticancer screening (SRB); assay type: cell-based; conditions: Homo sapiens; A498, renal cancer; one dose 10 μM; read-out: Growth Inhibition Percentage (GI %)
RXF 393 = test: NCI-60 anticancer screening (SRB); assay type: cell-based; conditions: Homo sapiens; RXF 393, renal cancer; one dose 10 μM; read-out: Growth Inhibition Percentage (GI %)
TK-10 = test: NCI-60 anticancer screening (SRB); assay type: cell-based; conditions: Homo sapiens; TK-10, renal cancer; one dose 10 μM; read-out: Growth Inhibition Percentage (GI %)
PC-3 = test: NCI-60 anticancer screening (SRB); assay type: cell-based; conditions: Homo sapiens; PC-3, prostate cancer; one dose 10 μM; read-out: Growth Inhibition Percentage (GI %)
MCF7 = test: NCI-60 anticancer screening (SRB); assay type: cell-based; conditions: Homo sapiens; MCF7, breast cancer; one dose 10 μM; read-out: Growth Inhibition Percentage (GI %)
MDA-MB-231 = test: NCI-60 anticancer screening (SRB); assay type: cell-based; conditions: Homo sapiens; MDA-MB-231, breast cancer; one dose 10 μM; read-out: Growth Inhibition Percentage (GI %)
BT-549 = test: NCI-60 anticancer screening (SRB); assay type: cell-based; conditions: Homo sapiens; BT-549, breast cancer; one dose 10 μM; read-out: Growth Inhibition Percentage (GI %)
T-47D = test: NCI-60 anticancer screening (SRB); assay type: cell-based; conditions: Homo sapiens, T47D, breast cancer, one dose 10 μM, read-out: Growth Inhibition Percentage (GI %)
MDA-MB-468 = test: NCI-60 anticancer screening (SRB); assay type: cell-based; conditions: Homo sapiens; MDA-MB-468, breast cancer; one dose 10 μM; read-out: Growth Inhibition Percentage (GI %)
NCI 60 cancer cell lines = test: NCI-60 anticancer screening (SRB), whole panel; assay type: cell-based, human; conditions: mean across the NCI-60 panel; one dose 10 μM

Structure (SMILES) | inhibition at 10 µM (CCRF-CEM) [%] | inhibition at 10 µM (HL-60(TB)) [%] | inhibition at 10 µM (K-562) [%] | inhibition at 10 µM (SR) [%] | inhibition at 10 µM (NCI-H226) [%] | inhibition at 10 µM (NCI-H322M) [%] | inhibition at 10 µM (COLO 205) [%] | inhibition at 10 µM (HCT-116) [%] | inhibition at 10 µM (HCT-15) [%] | inhibition at 10 µM (KM 12) [%] | inhibition at 10 µM (SW-620) [%] | inhibition at 10 µM (SF-268) [%] | inhibition at 10 µM (SNB-75) [%] | inhibition at 10 µM (U251) [%] | inhibition at 10 µM (LOX IMVI) [%] | inhibition at 10 µM (M14) [%] | inhibition at 10 µM (SK-MEL-2) [%] | inhibition at 10 µM (UACC-257) [%] | inhibition at 10 µM (IGROV1) [%] | inhibition at 10 µM (OVCAR-5) [%] | also measured
CCOC(=O)C1=C(N)N(c2ccccc2)C2=C(C(=O)CC(C)(C)C2)C1c1ccccc1Br (racemic) [6d, (±)-Ethyl 2-amino-4–(2-bromophenyl)-7,7-dimethyl-5-oxo-1-phenyl-1,4,5,6,7,8-hexahydroquinoline-3-carboxylate] | 20 | 34 | 20 | 14 | 11 | < 10 | < 10 | 21 | 17 | < 10 | < 10 | < 10 | 33 | < 10 | 12 | 13 | 23 | < 10 | < 10 | < 10 | inhibition at 10 µM (NCI/ADR-RES): < 10%; inhibition at 10 µM (SK-OV-3): < 10%; inhibition at 10 µM (786-0): 13%; inhibition at 10 µM (A498): < 10%; inhibition at 10 µM (RXF 393): < 10%; inhibition at 10 µM (TK-10): < 10%; inhibition at 10 µM (PC-3): 33%; inhibition at 10 µM (MCF7): 33%; inhibition at 10 µM (MDA-MB-231): < 10%; inhibition at 10 µM (BT-549): < 10%; inhibition at 10 µM (T-47D): 30%; inhibition at 10 µM (MDA-MB-468): 30%; GI % mean (NCI 60 cancer cell lines): 12%
CCOC(=O)C1=C(N)N(c2ccc(C)cc2)C2=C(C(=O)CC(C)(C)C2)C1c1ccccc1Br (racemic) [6e, (±)-Ethyl 2-amino-4–(2-bromophenyl)-7,7-dimethyl-1–(4-methylphenyl)-5-oxo-1,4,5,6,7,8-hexahydroquinoline-3-carboxylate] | 60 | 111 | 50 | 34 | 15 | < 10 | 37 | 60 | 42 | 16 | 54 | < 10 | 13 | 19 | 11 | 17 | 15 | 16 | < 10 | < 10 | inhibition at 10 µM (NCI/ADR-RES): < 10%; inhibition at 10 µM (SK-OV-3): < 10%; inhibition at 10 µM (786-0): 17%; inhibition at 10 µM (A498): < 10%; inhibition at 10 µM (RXF 393): 14%; inhibition at 10 µM (TK-10): < 10%; inhibition at 10 µM (PC-3): 68%; inhibition at 10 µM (MCF7): 43%; inhibition at 10 µM (MDA-MB-231): < 10%; inhibition at 10 µM (BT-549): < 10%; inhibition at 10 µM (T-47D): 30%; inhibition at 10 µM (MDA-MB-468): 23%; GI % mean (NCI 60 cancer cell lines): 22%
CCOC(=O)C1=C(N)N(c2ccc(Cl)cc2)C2=C(C(=O)CC(C)(C)C2)C1c1ccccc1Br (racemic) [6f, (±)-Ethyl 2-amino-4–(2-bromophenyl)-1–(4-chlorophenyl)-7,7-dimethyl-5-oxo-1,4,5,6,7,8-hexahydroquinoline-3-carboxylate] | 33 | 68 | < 10 | < 10 | 14 | < 10 | 45 | 60 | 53 | 40 | 38 | 17 | 16 | 40 | < 10 | 24 | < 10 | 42 | < 10 | < 10 | inhibition at 10 µM (NCI/ADR-RES): 14%; inhibition at 10 µM (SK-OV-3): < 10%; inhibition at 10 µM (786-0): 12%; inhibition at 10 µM (A498): < 10%; inhibition at 10 µM (RXF 393): < 10%; inhibition at 10 µM (TK-10): 22%; inhibition at 10 µM (PC-3): 71%; inhibition at 10 µM (MCF7): 47%; inhibition at 10 µM (MDA-MB-231): 15%; inhibition at 10 µM (BT-549): 27%; inhibition at 10 µM (T-47D): 49%; inhibition at 10 µM (MDA-MB-468): 53%; GI % mean (NCI 60 cancer cell lines): 24%
